Results reported in patent US9877998B2, “Uses of hypoxia-inducible factor inhibitors” (OncoImmune, Inc., priority 2009, dated 2018).

Tests used:
[1] = system: lymphoma CSC (c-Kit+Sca-1+ TGB lymphoma cells); experiment: Colony formation (CFU) assay of TGB lymphoma cells in 1% methylcellulose medium; format: cell-based, mouse; settings: for effect on lymphoma CFU (colony number): cultured lymphoma cells treated 24 hours with pharmacologically effective doses (echinomycin: low doses), drugs washed away
Protocol: FIG. 2. HIF addiction of CSC. a. Selective ablation of lymphoma CFU by echinomycin. The cultured lymphoma cells were treated with given doses of pharmacologically effective drugs in medium for 24 hours. After washing away the drugs, the cells were cultured in 1% methylcellulose-containing medium, and the colony number was counted after 6 to 7 days. Data shown are means and SD of triplicates and have been confirmed by 3 independent experiments. b. A reporter system for HIF activity in the TGB lymphoma. Diagram of lentiviral construct for HIF activity is shown on the top. Pause, a sequence fragment to eliminate the effect of lentiviral promoter; HRE, Hypoxia response element (SEQ ID NO: 20); TATA, TATA sequence (TATATAAT) (top). Lower left, validation of the reporter. HEK293 cells were transiently transfected with cDNA encoding mutant HIF1α (P402A/P577A) or vector control in conjunction with either HRE-driven EGFP reporter, HRE mutant reporter (SEQ ID NO: 21). The cells were analyzed by flow cytometry to detect EGFP expression 36 hours after transduction. […] IC50 of echinomycin in the inhibition of HIF1α activity in lymphoma CSC. The lymphoma cells transfected with the HRE reporter system were cultured in the presence of different concentration of echinomycin for 12 hours, the % of c-Kit^+GFP^+ cells was normalized against the untreated group (1.13%, which was defined as 100%). […] Selectivity of HIF inhibitor for CFU of lymphoma CSC over the CFU from hematopoietic progenitor cells. c-Kit^+Sca-1^+ cells from either TGB or normal bone marrow were treated with given concentration of echinomycin overnight prior to plating in the medium containing 1% methylcellulose for CFU assay. The data shown were % of untreated controls, and were means+/−S.D. of triplicates. e. Therapeutic effect of a low dose of echinomycin. Cultured lymphoma cells (1×10^6/mouse) were injected i.p. into immune competent B10.BR mice. Fourteen days later, 10 μg/Kg/Injection of echimomycin was injected at a two-day interval for a total of 5 times. Control mice received vehicle only. The mice were observed daily for survival.
FIG. 6. HIF works in concert with Notch pathway to maintain CSC. a. Inhibition of colony-forming activity of CSC. The cultured lymphoma cells were treated with given doses of L685, 458 for 24 hours. After that, the cells were cultured in 1% methylcellulose-containing medium, and the colony number was counted after 6 to 7 days. Data shown are means+/−SD of triplicate samples and are representative of those of at least 3 independent experiments. b. Enhanced Notch activity in CSC, as indicated by the levels of Hes1 transcripts. The lymphoma cells from spleen with tumor in TGB transgenic mouse were sorted into c-kit^+Sca-1^+ or c-kit^−Sca-1^− fractions. The expressions of Hes1αnd mRNA in these two fractions were measured by real time PCR. c. Inhibition of Notch activity by 3 distinct HIF inhibitors. Cultured TGB lymphoma cells were stained with APC conjugated anti-c-Kit-antibody and enriched twice using anti-APC coated MACS beads according to manufacturer's protocol (Militenyi Biotec). The c-kit positive cells-enriched samples (60.4% c-Kit^+ cells) were treated with inhibitors of HIF for 16 hours. The mRNA from the treated cells were extracted for quantitation by real-time PCR. Data shown are means+/−SD of triplicates and represent those from at least 3 independent experiments. 2ME2, 2-methoxyestradiol; GA, geldamycin. d-g. […] A truncated Notch gene with potent dominant negative activity in inhibiting the expression of Notch target gene Hes. […] The right panel show dominant inhibition of Hes expression. After three consecutive transductions by either vector control or the dRdA1-4dOP mutant, the RNA were isolated and the transcripts of Hes measured by quantitative PCR. Data shown are means of triplicates and have been reproduced by two independent experiments. e. Notch I-C deltaRAM abrogates the c-Kit^+Sca-1^+ subset. […]

TGB lymphoma = experiment: In vivo tumorigenicity / therapy of transplanted TGB lymphoma in B10.BR mice (survival); settings: 9×10^5 lymphoma cells i.p., 5 injections at two day interval from day 8; less efficacy than echinomycin (FIG. 12b)
Protocol: FIG. 2. HIF addiction of CSC. a. Selective ablation of lymphoma CFU by echinomycin. The cultured lymphoma cells were treated with given doses of pharmacologically effective drugs in medium for 24 hours. After washing away the drugs, the cells were cultured in 1% methylcellulose-containing medium, and the colony number was counted after 6 to 7 days. Data shown are means and SD of triplicates and have been confirmed by 3 independent experiments. b. A reporter system for HIF activity in the TGB lymphoma. Diagram of lentiviral construct for HIF activity is shown on the top. Pause, a sequence fragment to eliminate the effect of lentiviral promoter; HRE, Hypoxia response element (SEQ ID NO: 20); TATA, TATA sequence (TATATAAT) (top). Lower left, validation of the reporter. HEK293 cells were transiently transfected with cDNA encoding mutant HIF1α (P402A/P577A) or vector control in conjunction with either HRE-driven EGFP reporter, HRE mutant reporter (SEQ ID NO: 21). The cells were analyzed by flow cytometry to detect EGFP expression 36 hours after transduction. […] IC50 of echinomycin in the inhibition of HIF1α activity in lymphoma CSC. […]
Given numbers of total tumor cells or sorted subsets were injected into either immune competent B10.BR mice or RAG-2^−/−BALB/c mice. […] The therapeutic effects were analyzed by Kaplan Meier survival analysis.

[2] = system: lymphoma CSC (c-Kit+Sca-1+ TGB lymphoma cells); experiment: Colony formation (CFU) assay of TGB lymphoma cells in 1% methylcellulose medium; format: cell-based, mouse; settings: first and second rounds of sorted cells, 1000/well, drug 24 hours, colonies counted after 5 days
[3] = colonies counted after 6 to 7 days

Row | Structure (SMILES) | effect on lymphoma CFU (colony number) [1, 3] | other results
1 | OCC1OC(O)CC(O)C1O (stereo not shown) [2-DG] | no effect | 
2 | COc1cc2c(cc1O)CC[C@@H]1[C@@H]2CC[C@]2(C)[C@@H](O)CC[C@@H]12 [2-methoxyestradiol] |  | CFU of CSC ([1]; less efficacy than echinomycin (FIG. 12a)): reduced; tumor initiation of CSC (TGB lymphoma): reduced; inhibition of colony formation of sorted c-Kit+Sca-1+ tumor cells [2]: Inhibition
3 | COc1ccc2c(c1)c(C1=C(c3c[nH]c4ccccc34)C(=O)NC1=O)cn2CCCN(C)C [Gö6983] | no effect | 
4 | O=S(=O)(NCCNC/C=C/c1ccc(Br)cc1)c1cccc2cnccc12 [H89] | no effect | 
5 | CC(C)C[C@H](NC(=O)[C@H](Cc1ccccc1)C[C@@H](O)[C@H](Cc1ccccc1)NC(=O)OC(C)(C)C)C(=O)N[C@@H](Cc1ccccc1)C(N)=O [L-685, 458] |  | colony forming activity of lymphoma CSC ([1]; given doses for 24 hours, colonies counted after 6 to 7 days): potently blocked
6 | O=c1cc(N2CCOCC2)oc2c(-c3ccccc3)cccc12 [Ly294002] | no effect | 
7 | COc1cccc(-c2cc(=O)c3ccccc3o2)c1N [PD98059] | no effect | 
8 | S=C(S)N1CCCC1 [PDTC] | no effect | 
9 | CO[C@H]1C[C@@H]2CC[C@@H](C)[C@@](O)(O2)C(=O)C(=O)N2CCCC[C@H]2C(=O)O[C@H]([C@H](C)C[C@@H]2CC[C@@H](O)[C@H](OC)C2)CC(=O)[C@H](C)/C=C(\C)[C@@H](O)[C@@H](OC)C(=O)[C@H](C)C[C@H](C)/C=C/C=C/C=C/1C [Rapamycin] | no effect | 
10 | C[S+]([O-])c1ccc(-c2nc(-c3ccncc3)c(-c3ccc(F)cc3)[nH]2)cc1 (stereo not shown) [SB203580] | no effect | 
11 | Cn1cc(C2=C(c3ccc(Cl)cc3Cl)C(=O)NC2=O)c2ccccc21 [SB216763] | no effect | 
